Patent US8445207B2, “Genes based on thalidomide, valproic acid and methotrexate treatment for screening of drug inducing teratogenicity and screening method using thereof” (priority 2009, dated 2013)

Test system: JEG-3 (human placental choriocarcinoma cell line)
Assay: Oligo microarray gene expression in drug-treated JEG-3 (Cy5 treated / Cy3 control)
Format: cell-based
Protocol: Thalidomide, valproic acid, and methotrexate were treated to human placental choriocarcinoma cell line at the concentrations determined above (Inhibition concentration: the concentration that can kill approximately 30% of the total cells, that is the concentration of 70% viability, IC30). mRNA was extracted from the drug treated cell line, followed by synthesis of cDNA which was labeled with Cy5. The non-treated control was labeled with Cy3. The fluorescence labeled cDNA was hybridized with 41K (thalidomide), 44K (valproic acid, methotrexate) human whole genome oligomicroarray chips (Agilent, USA), followed by fluorescent image scanning to analyze gene expression patterns (see FIG. 4). Volcano Plot of each substance was also attached. Y axis indicates probability (generally converted by −log 10). X axis indicates differential expression, which is presented by log-ratio.
Total RNA was separated from the treated cell by using trizol reagent (Invitrogen Life Technologies, USA) according to the manufacture's instructions, followed by purification using RNeasy mini kit (Qiagen, USA). Genomic DNA was eliminated during RNA purification using RNase-free DNase set (Qiagen, USA).
30 μg of the total RNA obtained above and 2 μg (1 μg/μl) of oligo (dT) primer were mixed, followed by reaction at 65° C. for 10 minutes. Annealing was performed in ice right after the reaction. Reagents were prepared as shown in Table 1 for reverse transcription of the annealed RNA.
The total RNA separated from the control group JEG-3 cells was labeled with Cy3-dUTP (green) and the total RNA separated from the experiment group JEG-3 cells treated with thalidomide, valproic acid and methotrexate was labeled with Cy5-dUTP (red). At this time, the two samples were mixed and purified by Microcon YM-30 column (Millipore, USA).
Hybridization and washing were performed by the manufacturer's (GenoCheck, Korea) instructions. Particularly, hybridization was performed in a 62° C. oven for 12 hours. As a DNA microarray chip, 44 k whole human genome oligo microarray (Agilent, USA) was used. After washing (2 minutes with 2×SSC/0.1% SDS, three minutes with 1×SSC, 2 minutes with 0.2×SSC), the slide was dried by centrifugation at 800 rpm for 3 minutes.
Hybridization image on the slide was scanned with Genepix 4000B (Axon Instruments, USA). Fluorescence image of the chip on which non-hybridized genes had been washed out was obtained by using laser fluorescence scanner. Green fluorescence image indicates the activity of gene specifically expressed in the control group and red fluorescence image indicates the activity of gene specifically expressed in the experimental group. […] Scanned image was analyzed by using GenePix 4.1 software (Axon Instruments, USA) to calculate gene expression rate.

## CN(Cc1cnc2nc(N)nc(N)c2n1)c1ccc(C(=O)N[C@@H](CCC(=O)O)C(=O)O)cc1 [MTX, methotrexate]
GenBank AB002308
  cDNA microarray (Cy3/Cy5 ratio), KIAA0310: 2.29
GenBank AB018258
  cDNA microarray (Cy3/Cy5 ratio), ATP10B: 4.95
GenBank AB209845
  cDNA microarray (Cy3/Cy5 ratio), TTF2: 1.94
GenBank AF001893
  cDNA microarray (Cy3/Cy5 ratio), TncRNA: 2.11
GenBank AK001879
  cDNA microarray (Cy3/Cy5 ratio), C4orf19: 4.69
GenBank AK023571
  cDNA microarray (Cy3/Cy5 ratio), CYP19A1: 2.72
GenBank AK023574
  cDNA microarray (Cy3/Cy5 ratio), SLC40A1: 3.06
GenBank AK095632
  cDNA microarray (Cy3/Cy5 ratio), ABTB2: 4.65
GenBank AK122757
  cDNA microarray (Cy3/Cy5 ratio), TUBB3: 7.85
GenBank AK125877
  cDNA microarray (Cy3/Cy5 ratio), MGC27016: 1.52
GenBank AK126731
  cDNA microarray (Cy3/Cy5 ratio), GLCCI1: 2.84
GenBank BC036890
  cDNA microarray (Cy3/Cy5 ratio), TFCP2L4: 4.11
GenBank BC042755
  cDNA microarray (Cy3/Cy5 ratio), RGS2: 9.24
GenBank BC063830
  cDNA microarray (Cy3/Cy5 ratio), SIAT7A: 15.01
GenBank BX648021
  cDNA microarray (Cy3/Cy5 ratio), B7-H4: 0.27
GenBank BX649112
  cDNA microarray (Cy3/Cy5 ratio), COBLL1: 4.89
GenBank NM_000735
  cDNA microarray (Cy3/Cy5 ratio), CGA: 8.07
GenBank NM_001618
  cDNA microarray (Cy3/Cy5 ratio), PARP1: 0.6
GenBank NM_004155
  cDNA microarray (Cy3/Cy5 ratio), SERPINB9: 4.04
GenBank NM_005668
  cDNA microarray (Cy3/Cy5 ratio), ST8SIA4: 1.82
GenBank NM_007313
  cDNA microarray (Cy5 treated / Cy3 control ratio), ABL1: 0.49
GenBank NM_024342
  cDNA microarray (Cy3/Cy5 ratio), GRLF1: 0.29
GenBank NM_032484
  cDNA microarray (Cy3/Cy5 ratio), LGP1: 0.49
GenBank NM_181659
  cDNA microarray (Cy3/Cy5 ratio), NCOA3: 2.12
GenBank XM_031553
  cDNA microarray (Cy3/Cy5 ratio), SR140: 0.66
GenBank Y18483
  cDNA microarray (Cy3/Cy5 ratio), SLC7A8: 3.76
Genbank AB028993, drug at IC30
  Ratio of intermediate value, NLGN1: 0.25
Genbank AB067472, drug at IC30
  Ratio of intermediate value, VARS2L: 0.46
Genbank AB209246, drug at IC30
  Ratio of intermediate value, PPAT: 0.44
Genbank AB209322, drug at IC30
  Ratio of intermediate value, SEMA3B: 0.48
Genbank AB209458, drug at IC30
  Ratio of intermediate value, SCLY: 0.41
Genbank AF061326, drug at IC30
  Ratio of intermediate value, C8orf1: 0.46
Genbank AF078164, drug at IC30
  Ratio of intermediate value, KUB3: 0.45
Genbank AF078847, drug at IC30
  Ratio of intermediate value, GTF2H2: 0.44
Genbank AF196185, drug at IC30
  Ratio of intermediate value, PARD3: 0.28
Genbank AK022713, drug at IC30
  Ratio of intermediate value, Homo sapiens cDNA FLJ12651 fis, clone NT2RM4002062: 0.21
Genbank AK023909, NM_001190, drug at IC30
  Ratio of intermediate value, BCAT2: 0.35
Genbank AK027126, drug at IC30
  Ratio of intermediate value, ASS: 0.19
Genbank AK055053, drug at IC30
  Ratio of intermediate value, SHMT2: 0.42
Genbank AK056980, drug at IC30
  Ratio of intermediate value, FLJ23441: 0.41
Genbank AK057498, drug at IC30
  Ratio of intermediate value, RUVBL2: 0.42
Genbank AK092872, drug at IC30
  Ratio of intermediate value, ERCC2: 0.40
Genbank AK093306, drug at IC30
  Ratio of intermediate value, PHGDH: 0.16
Genbank AK122685, drug at IC30
  Ratio of intermediate value, GLUD1: 0.34
Genbank AK122825, drug at IC30
  Ratio of intermediate value, HMGB1: 0.37
Genbank AK125213, drug at IC30
  Ratio of intermediate value, YARS: 0.38
Genbank BC005077, NM_022725, drug at IC30
  Ratio of intermediate value, FANCF: 0.40
Genbank BC036421, drug at IC30
  Ratio of intermediate value, C9orf103: 0.38
Genbank BC065510, drug at IC30
  Ratio of intermediate value, CAD: 0.40
Genbank BI494022, NM_024342, drug at IC30
  Ratio of intermediate value, GRLF1: 0.29
Genbank BM467105, drug at IC30
  Ratio of intermediate value, CIB1: 0.44
Genbank BX248766, drug at IC30
  Ratio of intermediate value, RAD51L1: 0.43
Genbank BX640816, drug at IC30
  Ratio of intermediate value, NBS1: 0.31
Genbank BX648021, drug at IC30
  Ratio of intermediate value, B7-H4: 0.27
Genbank CR611116, drug at IC30
  Ratio of intermediate value, APEX1: 0.33
Genbank CR936770, drug at IC30
  Ratio of intermediate value, GNAO1: 0.49
Genbank D42045, drug at IC30
  Ratio of intermediate value, DCLRE1A: 0.43
Genbank L00972, drug at IC30
  Ratio of intermediate value, CBS: 0.47
